According to patent US9492471B2, “Methods of treating a disease or disorder associated with Bruton'S Tyrosine Kinase” (Celgene Avilomics Research, Inc., priority 2013, dated 2016):
Read-outs that look alike come from different tables or passages of the source.

What was measured:
Experiment in all cases: HotSpot kinase profiling
Format in all cases: biochemical
TESK1 = target: T1, TESK1 (Homo sapiens, UniProt Q15569)
T1 construct: purchased Reaction Biology Corp
Procedure, shortened: (§1)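 P81 filtration radiometric readout; 2 h incubation at room temperature; 0.1% phosphoric acid wash; DMSO negative control; % inhibition, mean of replicate runs.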

STK32B/YANK2 = target: T2, STK32B/YANK2 (Homo sapiens, UniProt Q9NY57)
T2 construct: purchased Reaction Biology Corp
T2 sequence (Q9NY57 whole entry): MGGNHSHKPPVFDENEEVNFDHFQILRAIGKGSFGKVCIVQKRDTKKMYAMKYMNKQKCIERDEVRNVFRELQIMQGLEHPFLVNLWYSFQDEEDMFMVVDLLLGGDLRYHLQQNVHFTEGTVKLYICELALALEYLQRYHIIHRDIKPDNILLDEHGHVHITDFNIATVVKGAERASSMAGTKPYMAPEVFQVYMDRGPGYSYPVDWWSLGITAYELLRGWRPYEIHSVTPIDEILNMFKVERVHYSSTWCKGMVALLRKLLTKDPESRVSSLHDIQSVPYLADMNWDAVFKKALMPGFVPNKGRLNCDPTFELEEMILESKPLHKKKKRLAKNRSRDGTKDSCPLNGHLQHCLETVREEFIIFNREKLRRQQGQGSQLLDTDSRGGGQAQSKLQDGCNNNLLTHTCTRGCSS
Procedure, shortened: as §1

PKA = target: T3, PKA (Homo sapiens, UniProt P17612)
T3 construct: purchased Reaction Biology Corp
Procedure, shortened: as §1

Aurora B = target: T4, Aurora B (Homo sapiens, UniProt Q96GD4)
T4 construct: purchased Reaction Biology Corp
T4 sequence (Q96GD4 whole entry): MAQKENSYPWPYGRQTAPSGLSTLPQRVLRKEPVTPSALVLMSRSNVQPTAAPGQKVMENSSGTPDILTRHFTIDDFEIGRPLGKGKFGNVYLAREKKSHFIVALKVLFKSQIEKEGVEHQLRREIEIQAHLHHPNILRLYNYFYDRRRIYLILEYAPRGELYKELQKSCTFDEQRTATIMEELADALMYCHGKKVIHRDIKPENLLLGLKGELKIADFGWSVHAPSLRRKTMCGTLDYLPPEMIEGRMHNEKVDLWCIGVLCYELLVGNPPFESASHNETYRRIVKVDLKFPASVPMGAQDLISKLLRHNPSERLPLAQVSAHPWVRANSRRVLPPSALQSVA
Procedure, shortened: as §1

NEK3 = target: T5, NEK3 (Homo sapiens, UniProt P51956)
T5 construct: purchased Reaction Biology Corp
T5 sequence (P51956 1-506): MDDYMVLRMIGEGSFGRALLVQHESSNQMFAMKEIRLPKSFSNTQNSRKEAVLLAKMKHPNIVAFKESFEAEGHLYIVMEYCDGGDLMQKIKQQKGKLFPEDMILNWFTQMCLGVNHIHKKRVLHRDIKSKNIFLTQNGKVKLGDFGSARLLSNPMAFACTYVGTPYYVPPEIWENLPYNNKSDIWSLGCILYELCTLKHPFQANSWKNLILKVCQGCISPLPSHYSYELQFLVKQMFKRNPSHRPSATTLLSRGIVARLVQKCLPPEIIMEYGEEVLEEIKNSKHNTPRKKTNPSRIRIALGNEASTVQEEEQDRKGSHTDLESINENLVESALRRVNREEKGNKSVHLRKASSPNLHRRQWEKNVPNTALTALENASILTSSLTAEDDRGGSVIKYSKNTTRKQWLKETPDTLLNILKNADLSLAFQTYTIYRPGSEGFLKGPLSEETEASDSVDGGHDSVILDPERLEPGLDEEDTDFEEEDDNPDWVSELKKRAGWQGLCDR
Procedure, shortened: as §1

ERBB2/HER2 = target: T6, ERBB2/HER2 (Homo sapiens, UniProt P04626)
T6 construct: purchased Reaction Biology Corp
T6 sequence (P04626 23-1255): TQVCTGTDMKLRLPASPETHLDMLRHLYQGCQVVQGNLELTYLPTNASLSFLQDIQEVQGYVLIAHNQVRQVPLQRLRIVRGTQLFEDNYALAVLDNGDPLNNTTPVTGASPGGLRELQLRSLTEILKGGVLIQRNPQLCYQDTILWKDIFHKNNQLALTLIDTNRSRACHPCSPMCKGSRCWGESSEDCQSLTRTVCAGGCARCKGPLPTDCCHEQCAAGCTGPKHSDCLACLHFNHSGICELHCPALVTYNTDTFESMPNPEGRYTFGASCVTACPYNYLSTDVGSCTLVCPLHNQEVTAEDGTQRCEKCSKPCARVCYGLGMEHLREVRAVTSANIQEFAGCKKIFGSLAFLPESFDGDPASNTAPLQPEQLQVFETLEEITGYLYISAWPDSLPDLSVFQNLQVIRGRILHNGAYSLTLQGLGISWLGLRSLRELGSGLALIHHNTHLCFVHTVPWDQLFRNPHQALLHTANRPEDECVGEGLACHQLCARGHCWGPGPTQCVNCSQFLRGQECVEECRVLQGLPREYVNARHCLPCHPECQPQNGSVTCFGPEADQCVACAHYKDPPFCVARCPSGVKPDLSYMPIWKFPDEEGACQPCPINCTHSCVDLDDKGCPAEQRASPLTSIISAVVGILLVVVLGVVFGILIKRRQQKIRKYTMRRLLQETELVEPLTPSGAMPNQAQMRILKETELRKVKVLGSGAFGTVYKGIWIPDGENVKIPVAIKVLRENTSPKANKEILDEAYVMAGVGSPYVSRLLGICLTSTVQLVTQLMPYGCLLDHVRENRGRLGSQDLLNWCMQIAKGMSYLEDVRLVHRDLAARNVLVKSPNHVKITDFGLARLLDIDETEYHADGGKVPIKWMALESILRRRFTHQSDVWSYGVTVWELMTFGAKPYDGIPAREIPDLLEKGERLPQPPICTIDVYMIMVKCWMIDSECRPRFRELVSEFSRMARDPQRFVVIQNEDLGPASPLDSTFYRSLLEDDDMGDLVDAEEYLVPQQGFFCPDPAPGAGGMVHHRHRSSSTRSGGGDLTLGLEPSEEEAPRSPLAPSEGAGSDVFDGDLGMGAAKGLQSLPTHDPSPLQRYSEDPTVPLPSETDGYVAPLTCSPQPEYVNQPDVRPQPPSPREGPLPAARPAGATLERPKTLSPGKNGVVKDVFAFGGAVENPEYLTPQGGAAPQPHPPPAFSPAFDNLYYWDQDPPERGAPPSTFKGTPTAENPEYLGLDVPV
Procedure, shortened: as §1

DCAMKL1 = target: T7, DCAMKL1 (Homo sapiens, UniProt O15075)
T7 construct: purchased Reaction Biology Corp
T7 sequence (O15075 1-740): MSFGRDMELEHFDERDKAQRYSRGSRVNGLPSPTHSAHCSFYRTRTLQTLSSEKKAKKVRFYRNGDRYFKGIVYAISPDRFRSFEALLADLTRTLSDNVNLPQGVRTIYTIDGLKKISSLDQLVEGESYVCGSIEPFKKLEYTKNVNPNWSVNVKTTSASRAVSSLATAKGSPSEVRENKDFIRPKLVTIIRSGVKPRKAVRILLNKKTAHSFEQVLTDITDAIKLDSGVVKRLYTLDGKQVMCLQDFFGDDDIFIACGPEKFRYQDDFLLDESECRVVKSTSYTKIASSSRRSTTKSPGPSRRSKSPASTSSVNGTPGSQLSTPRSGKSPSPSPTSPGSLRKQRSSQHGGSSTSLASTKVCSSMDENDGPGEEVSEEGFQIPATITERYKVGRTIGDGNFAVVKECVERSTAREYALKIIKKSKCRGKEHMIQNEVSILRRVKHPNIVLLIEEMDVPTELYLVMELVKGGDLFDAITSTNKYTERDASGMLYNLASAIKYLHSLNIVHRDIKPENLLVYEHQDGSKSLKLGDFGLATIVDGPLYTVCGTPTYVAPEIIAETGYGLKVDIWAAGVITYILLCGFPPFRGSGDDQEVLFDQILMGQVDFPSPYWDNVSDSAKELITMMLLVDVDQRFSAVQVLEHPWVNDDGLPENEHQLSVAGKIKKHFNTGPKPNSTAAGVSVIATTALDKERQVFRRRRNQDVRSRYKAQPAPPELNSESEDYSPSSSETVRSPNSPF
Procedure, shortened: as §1

[1] = read-out: % Enzyme Activity (relative to DMSO controls) Run 1
[2] = read-out: % Enzyme Activity (relative to DMSO controls) Run 2

T1 sequence (Q15569 whole entry): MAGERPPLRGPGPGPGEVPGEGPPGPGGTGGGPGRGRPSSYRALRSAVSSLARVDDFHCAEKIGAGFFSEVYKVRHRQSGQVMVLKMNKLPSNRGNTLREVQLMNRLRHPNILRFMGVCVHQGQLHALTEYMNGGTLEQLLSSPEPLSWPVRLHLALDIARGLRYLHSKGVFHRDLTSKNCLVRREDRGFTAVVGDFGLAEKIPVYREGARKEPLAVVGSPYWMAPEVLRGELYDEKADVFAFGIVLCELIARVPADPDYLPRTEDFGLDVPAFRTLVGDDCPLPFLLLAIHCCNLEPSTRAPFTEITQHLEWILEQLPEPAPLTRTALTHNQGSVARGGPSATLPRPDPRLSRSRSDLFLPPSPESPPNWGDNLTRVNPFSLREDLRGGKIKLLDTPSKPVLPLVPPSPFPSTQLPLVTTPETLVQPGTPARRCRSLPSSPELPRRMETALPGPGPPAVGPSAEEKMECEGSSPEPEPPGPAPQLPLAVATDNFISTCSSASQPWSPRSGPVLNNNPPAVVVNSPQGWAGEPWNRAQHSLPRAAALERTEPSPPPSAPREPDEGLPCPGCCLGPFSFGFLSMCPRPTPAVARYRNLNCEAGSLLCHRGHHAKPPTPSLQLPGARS

**Q.** With `C=CC(=O)Nc1cccc(Nc2nc(Nc3ccc(OCCOC)c(F)c3)ncc2F)c1` [Compound 2] as the molecule, how does the inhibition at 3 µM (TESK1) read?
**A.** 2.13%

**Q.** And the remaining activity at 3 µM (TESK1; [1])?
**A.** 97.2%

**Q.** And the remaining activity at 3 µM (TESK1; [2])?
**A.** 98.5%

**Q.** What about the inhibition at 3 µM (STK32B/YANK2) of the same molecule?
**A.** 5.3%

**Q.** What about the remaining activity at 3 µM (STK32B/YANK2; [1]) of the same molecule?
**A.** 95.8%

**Q.** And the remaining activity at 3 µM (STK32B/YANK2; [2])?
**A.** 93.6%

**Q.** What about the inhibition at 3 µM (PKA) of the same molecule?
**A.** 14.5%

**Q.** And the remaining activity at 3 µM (PKA; [1])?
**A.** 85.8%

**Q.** What about the remaining activity at 3 µM (PKA; [2]) of the same molecule?
**A.** 85.1%

**Q.** What about the inhibition at 3 µM (Aurora B) of the same molecule?
**A.** 86.9%

**Q.** And the remaining activity at 3 µM (Aurora B; [1])?
**A.** 13.2%

**Q.** What about the remaining activity at 3 µM (Aurora B; [2]) of the same molecule?
**A.** 12.9%

**Q.** What about the inhibition at 3 µM (NEK3) of the same molecule?
**A.** 24.1%

**Q.** And the remaining activity at 3 µM (NEK3; [1])?
**A.** 76.7%

**Q.** What about the remaining activity at 3 µM (NEK3; [2]) of the same molecule?
**A.** 75.1%

**Q.** What about the inhibition at 3 µM (ERBB2/HER2) of the same molecule?
**A.** 61.3%

**Q.** What about the remaining activity at 3 µM (ERBB2/HER2; [1]) of the same molecule?
**A.** 39.8%

**Q.** What about the remaining activity at 3 µM (ERBB2/HER2; [2]) of the same molecule?
**A.** 37.5%

**Q.** What about the inhibition at 3 µM (DCAMKL1) of the same molecule?
**A.** 2.02%

**Q.** And the remaining activity at 3 µM (DCAMKL1; [1])?
**A.** 98.4%

**Q.** What about the remaining activity at 3 µM (DCAMKL1; [2]) of the same molecule?
**A.** 97.5%
